Like-named read-outs stand apart in the source and are kept apart here.
Tests used:
[1] = test system: Plasmodium falciparum 3D7-A10 parasites; experiment: Stage specificity assay (8-h exposure of synchronized stages, IC50^8h); assay type: cell-based; conditions: for IC50: Plasmodium falciparum
[2] = test system: asynchronous 3D7-A10 parasite cultures; experiment: Standard 72-h exposure asexual blood stage susceptibility assay (IC50^72h); assay type: cell-based, Plasmodium falciparum; conditions: Plasmodium falciparum, 3D7, 72 h, read-out: Overall (72hr assay) Mean IC50 (IC50^72h)
[3] = test system: 3D7-MR4 trophozoite parasite-infected RBCs; experiment: Metabolomic profiling (hydrophilic metabolite changes, UHPLC-MS); assay type: cell-based, Plasmodium falciparum

SMILES: OC(c1cc(C(F)(F)F)nc2c(C(F)(F)F)cccc12)C1CCCCN1 (stereo not drawn) [Mefloquine, reference compound]
- Ratio lowest IC50 8hr/IC50 72hr ([1]; 3D7-A10): 3.0
- IC50 ([1]; 3D7, read-out: Early rings Mean IC50 (IC50^8h), 8-h exposure 0–8 hr, 3D7-A10, survival at 60 h): 258 nM
- IC50 ([1]; 3D7, read-out: Early trophozoites Mean IC50 (IC50^8h), 8-h exposure 16–24 hr, 3D7-A10, survival at 60 h): 28.8 nM
- IC50 ([1]; 3D7, read-out: IC50^8h values, text summary of Table S1): < 300 nM
- IC50 ([1]; 3D7, read-out: Late rings Mean IC50 (IC50^8h), 8-h exposure 8–16 hr, 3D7-A10, survival at 60 h): 147 nM
- IC50 ([1]; 3D7, read-out: Late trophozoites Mean IC50 (IC50^8h), 8-h exposure 24–32 hr, 3D7-A10, survival at 60 h): 29.5 nM
- IC50 ([1]; 3D7, read-out: Schizonts Mean IC50 (IC50^8h), 8-h exposure 32–40 hr, 3D7-A10, survival at 60 h): 138 nM
- Stage of peak activity (Figure 6) ([1]; period when the parasite was most susceptible (lowest IC50^8h)): only in trophozoites
- Peak Activity (Table S1) ([1]; stage(s) with the lowest IC50^8h): Trophs
- IC50 [2]: 9.8 nM
- changes within the set of metabolites detected (low fold change group) ([3]; 10 × IC50^72h, 2.5 hr, trophozoites): did not induce major changes
- Log2(fold changes) 3-phosphoglycerate ([3]; metabolite 3-phosphoglycerate, log2 fold change): 0.2359
- Log2(fold changes) 4-Pyridoxic acid ([3]; metabolite 4-Pyridoxic acid, log2 fold change): 0.0740
- Log2(fold changes) 4-aminobutyrate ([3]; metabolite 4-aminobutyrate, log2 fold change): -0.0258
- Log2(fold changes) 4-phosphopantetheine ([3]; metabolite 4-phosphopantetheine, log2 fold change): 0.0000
- Log2(fold changes) 4-phosphopantothenate ([3]; metabolite 4-phosphopantothenate, log2 fold change): 0.0024
- Log2(fold changes) 5-aminopentanoic acid ([3]; metabolite 5-aminopentanoic acid, log2 fold change): 0.0000
- Log2(fold changes) 5-methyl-THF ([3]; metabolite 5-methyl-THF, log2 fold change): 0.0000
- Log2(fold changes) 5-phosphoribosyl-1-pyrophosphate ([3]; metabolite 5-phosphoribosyl-1-pyrophosphate, log2 fold change): 0.0000
- Log2(fold changes) 6-phospho-D-gluconate ([3]; metabolite 6-phospho-D-gluconate, log2 fold change): -0.0079
- Log2(fold change) HVDD ([3]; metabolite HVDD): 0.0000
- Log2(fold change) Hydroxyisocaproic acid ([3]; metabolite Hydroxyisocaproic acid): 0.0000
- Log2(fold change) IDP ([3]; metabolite IDP): 0.0640
- Log2(fold change) IMP ([3]; metabolite IMP): -0.0534
- Log2(fold change) Inositol ([3]; metabolite Inositol): 0.0000
- Log2(fold change) Isopentyl-PP ([3]; metabolite Isopentyl-PP): 0.0000
- Log2(fold change) L-arginino-succinate ([3]; metabolite L-arginino-succinate): -0.3693
- Log2(fold change) LD ([3]; metabolite LD): 0.0808
- Log2(fold change) Myristoyl/tetradecanoyl-CoA ([3]; metabolite Myristoyl/tetradecanoyl-CoA): 0.0941
- Log2(fold change) N-Acetyl-L-alanine ([3]; metabolite N-Acetyl-L-alanine): -0.2190
- Log2(fold change) N-acetyl-L-ornithine ([3]; metabolite N-acetyl-L-ornithine): -0.0436
- Log2(fold change) N-acetyl-glucosamine-1/6-phosphate ([3]; metabolite N-acetyl-glucosamine-1/6-phosphate): 0.0000
- Log2(fold change) N-acetyl-glutamate ([3]; metabolite N-acetyl-glutamate): 0.0134
- Log2(fold change) N-acetyl-glutamine ([3]; metabolite N-acetyl-glutamine): 0.0000
- Log2(fold change) N-carbamoyl-L-aspartate ([3]; metabolite N-carbamoyl-L-aspartate): 0.0293
- Log2(fold change) NAD+ ([3]; metabolite NAD+): -0.0636
- Log2(fold change) NADH ([3]; metabolite NADH): 0.0000
- Log2(fold change) NADP+ ([3]; metabolite NADP+): -0.0054
- Log2(fold change) NADPH ([3]; metabolite NADPH): 0.3297
- Log2(fold change) O-acetyl-L-serine ([3]; metabolite O-acetyl-L-serine): 0.0000
- Log2(fold change) Octoluse 8/1P ([3]; metabolite Octoluse 8/1P): -0.0524
- Log2(fold change) Octoluse Bisphosphate ([3]; metabolite Octoluse Bisphosphate): -0.1015
- Log2(fold change) PD ([3]; metabolite PD): -0.1757
- Log2(fold change) PE ([3]; metabolite PE): -0.0476
- Log2(fold change) PEE ([3]; metabolite PEE): 0.0186
- Log2(fold change) PEEK ([3]; metabolite PEEK): 0.1844
- Log2(fold change) PVNF ([3]; metabolite PVNF): 0.0025
- Log2(fold change) Pyroglutamic acid ([3]; metabolite Pyroglutamic acid): -0.3976
- Log2(fold change) Pyrophosphate ([3]; metabolite Pyrophosphate): 0.0000
- Log2(fold change) Ribose-5-phosphate ([3]; metabolite Ribose-5-phosphate): 0.0147
- Log2(fold change) S-adenosyl-L-homocysteine ([3]; metabolite S-adenosyl-L-homocysteine): 0.1505
- Log2(fold change) S-adenosyl-L-methioninamine ([3]; metabolite S-adenosyl-L-methioninamine): 0.0000
- Log2(fold change) S-adenosyl-L-methionine ([3]; metabolite S-adenosyl-L-methionine): 0.0000
- Log2(fold change) S-methyl-5'-thioadenosine ([3]; metabolite S-methyl-5'-thioadenosine): 0.0813
- Log2(fold change) SD ([3]; metabolite SD): -0.0876
- Log2(fold change) SDL ([3]; metabolite SDL): -0.0202
- Log2(fold change) SID ([3]; metabolite SID): 0.0863
- Log2(fold change) Sedoheptulose bisphosphate ([3]; metabolite Sedoheptulose bisphosphate): 0.1126
- Log2(fold change) Thiamine pyrophosphate ([3]; metabolite Thiamine pyrophosphate): -0.0341
- Log2(fold changes) UDP-D-glucose ([3]; metabolite UDP-D-glucose, log2 fold change): 0.0242
- Log2(fold changes) UDP-D-glucuronate ([3]; metabolite UDP-D-glucuronate, log2 fold change): 0.0727
- Log2(fold changes) UDP-N-acetyl-glucosamine ([3]; metabolite UDP-N-acetyl-glucosamine, log2 fold change): -0.0280
- Log2(fold changes) UDP ([3]; metabolite UDP, log2 fold change): -0.6698
- Log2(fold changes) UMP ([3]; metabolite UMP, log2 fold change): -0.1565
- Log2(fold changes) UTP ([3]; metabolite UTP, log2 fold change): 0.0862
- Log2(fold change) hydroxyphenylpyruvate ([3]; metabolite hydroxyphenylpyruvate): 0.0000
- Log2(fold change) hydroxyproline/Aminolevulinate ([3]; metabolite hydroxyproline/Aminolevulinate): 0.0725
- Log2(fold change) hypoxanthine ([3]; metabolite hypoxanthine): 0.0000
- Log2(fold change) indole ([3]; metabolite indole): 0.0000
- Log2(fold change) inosine ([3]; metabolite inosine): -0.4356
- Log2(fold change) isoleucine ([3]; metabolite isoleucine): -0.0171
- Log2(fold change) lactate ([3]; metabolite lactate): -0.5208
- Log2(fold change) leucine ([3]; metabolite leucine): -0.1746
- Log2(fold change) lysine ([3]; metabolite lysine): -0.1798
- Log2(fold change) malate ([3]; metabolite malate): -0.0910
- Log2(fold change) maleic acid ([3]; metabolite maleic acid): -0.0602
- Log2(fold change) methionine ([3]; metabolite methionine): -0.0405
- Log2(fold change) myo-inositol ([3]; metabolite myo-inositol): -0.7507
- Log2(fold change) nicotinamide mononucleotide ([3]; metabolite nicotinamide mononucleotide): -0.0942
- Log2(fold change) nicotinate ([3]; metabolite nicotinate): -0.4821
- Log2(fold change) ornithine ([3]; metabolite ornithine): 0.0000
- Log2(fold change) orotate ([3]; metabolite orotate): -0.4063
- Log2(fold change) orotidine-5'-phosphate ([3]; metabolite orotidine-5'-phosphate): -0.7157
- Log2(fold change) oxaloacetate ([3]; metabolite oxaloacetate): 0.0000
- Log2(fold change) p-aminobenzoate ([3]; metabolite p-aminobenzoate): 0.0000
- Log2(fold change) p-hydroxybenzoate ([3]; metabolite p-hydroxybenzoate): 0.0000
- Log2(fold change) pantothenate ([3]; metabolite pantothenate): 0.0000
- Log2(fold change) phenylalanine ([3]; metabolite phenylalanine): -0.1685
- Log2(fold change) phenylpyruvate ([3]; metabolite phenylpyruvate): 0.0000
- Log2(fold change) phosphoenolpyruvate ([3]; metabolite phosphoenolpyruvate): 0.1912
- Log2(fold change) prephenate ([3]; metabolite prephenate): 0.0000
- Log2(fold change) proline ([3]; metabolite proline): -0.3045
- Log2(fold change) pyridoxine ([3]; metabolite pyridoxine): -0.5037
- Log2(fold change) pyruvate ([3]; metabolite pyruvate): -0.3898
- Log2(fold change) riboflavin ([3]; metabolite riboflavin): -0.1185
- Log2(fold change) ribose ([3]; metabolite ribose): -0.0288
- Log2(fold change) ribose-phosphate ([3]; metabolite ribose-phosphate): -0.1512
- Log2(fold change) ribulose-5-phosphate ([3]; metabolite ribulose-5-phosphate): 0.0069
- Log2(fold change) serine ([3]; metabolite serine): -0.0430
- Log2(fold change) sn-glycerol-3-phosphate ([3]; metabolite sn-glycerol-3-phosphate): 0.2262
- Log2(fold change) succinate/Methylmalonic acid ([3]; metabolite succinate/Methylmalonic acid): 0.1026
- Log2(fold change) succinyl-CoA/methylmalonyl-CoA ([3]; metabolite succinyl-CoA/methylmalonyl-CoA): 0.0000
- Log2(fold change) taurine ([3]; metabolite taurine): -0.0060
- Log2(fold change) thiamine ([3]; metabolite thiamine): -0.0860
- Log2(fold change) threonine/homoserine ([3]; metabolite threonine/homoserine): -0.1129
- Log2(fold change) thymidine ([3]; metabolite thymidine): 0.0000
- Log2(fold changes) thymine ([3]; metabolite thymine, log2 fold change): 0.0000
- Log2(fold changes) trehalose-6-Phosphate ([3]; metabolite trehalose-6-Phosphate, log2 fold change): 0.0000
- Log2(fold changes) tryptophan ([3]; metabolite tryptophan, log2 fold change): 0.0186
- Log2(fold changes) tyrosine ([3]; metabolite tyrosine, log2 fold change): 0.0223
- Log2(fold changes) uridine ([3]; metabolite uridine, log2 fold change): 0.0000

Reference: PMC7031696 (Cell chemical biology, 2019)
